# According to US6964759B2, “Formulations containing an anticholinergic drug for the treatment of chronic obstructive pulmonary disease” (Chiesi Farmaceutici S.p.A., priority 2000, dated 2005):
# Columns and labels:
# [1] = Aerodynamic particle size distribution and delivery performance, Andersen Cascade Impactor; format: physicochemical
# Description: The aerodynamic particle size distribution of each tested formulation was characterized using a Multistage Cascade Impactor according to the procedure described in European Pharmacopoeia 2nd edition, 1995, part V.5.9.1, pages 15-17. In this specific case, an Andersen Cascade Impactor (ACI) was used.
# Results were obtained as a mean of 3-4 cans. For each device, 5-25 cumulative actuations were carried out after discarding the first 5.
# Deposition of the drug on each ACI plate was determined by high pressure liquid chromatography (HPLC). Mean metered dose was calculated from the cumulative deposition in the actuator and ACI (stages); mean delivered dose was calculated from the cumulative deposition in the ACI. Mean respirable dose (fine particle dose) was obtained from the deposition on Stages 3 to filter corresponding to particles ≦4.71 μm, divided by the number of actuations per experiment.
# MAD and associated GSD (standard geometric deviation) values were obtained from probit transformation of cumulative percent undersize—log (ACI effective cut-off particle size diameter) and linear regression analysis of the resultant data, (Ph. Eur. Supp 1999).
# The use of a metering chamber volume of 100 μl allows a 320 μg strength variant of the 160 μg formulation.
# The delivery characteristics of the formulation in cans equipped with standard Bespack BK 360 actuators with 0.3 mm orifice diameter and a metering chamber volume of 50 μl are reported in Table 2. The use of a metering chamber volume of 100 μl allows a 160 μg strength variant of the 80 μg formulation.
# The relevant parameters were determined as described in Example 1.
# [2] = inhaled single doses of at least 160 μg; cited from earlier work
# [3] = nominal dose 20 μg, HFA 134a, 13% ethanol, 1% glycerol
# [4] = nominal dose 20 μg, HFA 134a, 13% ethanol, 1% glycerol, 0.3 mm orifice, 50 μl chamber
# [5] = nominal dose 40 μg, HFA 134a, 13% ethanol, 1% glycerol
# [6] = nominal dose 40 μg, HFA 134a, 13% ethanol, 1% glycerol, 0.3 mm orifice, 50 μl chamber
# [7] = nominal dose 80 μg, HFA 134a, 13% ethanol, 1% glycerol
# [8] = nominal dose 80 μg, HFA 134a, 13% ethanol, 1% glycerol, 0.3 mm orifice, 50 μl chamber
# [9] = nominal dose 80 μg, HFA 134a, 19% ethanol, without the low volatility component
# [10] = nominal dose 160 μg, HFA 134a, 13% ethanol, 1% glycerol
# [11] = nominal dose 160 μg, HFA 134a, 13% ethanol, 1% glycerol, 0.3 mm orifice, 50 μl chamber
# [12] = nominal dose 160 μg, HFA 134a, 19% ethanol, without the low volatility component
# [13] = nominal dose 320 μg, HFA 134a, 13% ethanol, 1% glycerol
# [14] = nominal dose 320 μg, HFA 134a, 13% ethanol, 1% glycerol, 0.3 mm orifice, 100 μl chamber
compound,measurement,setting,value
CC(C)[N+]1(C)[C@@H]2CC[C@H]1CC(OC(=O)C(CO)c1ccccc1)C2.[Br-] (stereo partly drawn) [ipratropium bromide],MAD,"[1]; Example 1 formulations with glycerol, over all nominal doses",2.2-2.9 μm
same,MAD,"[1]; formulation containing an ethanol level of 19% by weight, nominal doses 80 and 160 μg",1.2-1.3 μm
same,GSD,[1]; [3],2.1 ± 0.8
same,MAD,[1]; [3],2.4 ± 0.3 μm
same,Respirable fraction,[1]; [3],33.3 ± 3.8%
same,Delivered dose,[1]; [4],18.8 ± 1.6 µg
same,Metered dose,[1]; [4],20.6 ± 1.6 µg
same,Respirable dose,"[1]; nominal dose 20 μg, particles less than 4.7 μm, HFA 134a, 13% ethanol, 1% glycerol",6.8 ± 1.1 µg
same,GSD,[1]; [5],2.1 ± 0.1
same,MAD,[1]; [5],2.2 ± 0.1 μm
same,Respirable fraction,[1]; [5],31.5 ± 3.8%
same,Delivered dose,[1]; [6],38.7 ± 1.9 µg
same,Metered dose,[1]; [6],42.2 ± 1.8 µg
same,Respirable dose,"[1]; nominal dose 40 μg, particles less than 4.7 μm, HFA 134a, 13% ethanol, 1% glycerol",11.7 ± 1.2 µg
same,GSD,[1]; [7],2.2 ± 0.1
same,MAD,[1]; [7],2.7 ± 0.3 μm
same,Respirable fraction,[1]; [7],32.0 ± 6.1%
same,Delivered dose,[1]; [8],72.7 ± 0.6 µg
same,Metered dose,[1]; [8],78.5 ± 0.4 µg
same,Delivered dose,[1]; [9],70.0 ± 1.0 µg
same,GSD,[1]; [9],4.3 ± 0.4
same,MAD,[1]; [9],1.2 ± 0.1 μm
same,Respirable dose,[1]; [9],20.0 ± 1.3 µg
same,Respirable fraction,[1]; [9],28.7 ± 1.5%
same,Metered dose,"[1]; nominal dose 80 μg, HFA 134a, 19% ethanol, without the low volatility component, 0.3 mm orifice, 50 μl chamber",76.6 ± 1.6 µg
same,Respirable dose,"[1]; nominal dose 80 μg, particles less than 4.7 μm, HFA 134a, 13% ethanol, 1% glycerol",23.3 ± 4.5 µg
same,GSD,[1]; [10],2.3 ± 0.1
same,MAD,[1]; [10],2.5 ± 0.2 μm
same,Respirable fraction,[1]; [10],30.4 ± 3.5%
same,Delivered dose,[1]; [11],149.2 ± 10.7 µg
same,Metered dose,[1]; [11],161.1 ± 12.5 µg
same,Delivered dose,[1]; [12],144.2 ± 1.7 µg
same,GSD,[1]; [12],6.2 ± 0.2
same,MAD,[1]; [12],1.3 ± 0.2 μm
same,Respirable dose,[1]; [12],31.4 ± 1.3 µg
same,Respirable fraction,[1]; [12],21.8 ± 1.1%
same,Metered dose,"[1]; nominal dose 160 μg, HFA 134a, 19% ethanol, without the low volatility component, 0.3 mm orifice, 100 μl chamber",158.5 ± 2.0 µg
same,Respirable dose,"[1]; nominal dose 160 μg, particles less than 4.7 μm, HFA 134a, 13% ethanol, 1% glycerol",45.2 ± 2.5 µg
same,GSD,[1]; [13],2.6 ± 0.1
same,MAD,[1]; [13],2.9 ± 0.2 μm
same,Respirable fraction,[1]; [13],25.2 ± 1.2%
same,Delivered dose,[1]; [14],290.5 ± 1.9 µg
same,Metered dose,[1]; [14],321.4 ± 2.0 µg
same,Respirable dose,"[1]; nominal dose 320 μg, particles less than 4.7 μm, HFA 134a, 13% ethanol, 1% glycerol",73.2 ± 3.0 µg
same,Duration of action,[2],up to 12 hours
